The values below come from ChEMBL document CHEMBL4325829, “Design and Synthesis of Tubulin and Histone Deacetylase Inhibitor Based on iso-Combretastatin A-4” (J Med Chem, 2018).

One test addresses Tubulin (Homo sapiens) (UniProt P68371+Q9H4B7+P0DPH7+P68366+Q13509+Q71U36+P04350+Q3ZCM7+P07437+P68363+Q9BQE3+Q6PEY2+Q13885+Q9BVA1+Q9BUF5). As to the kind of experiment: Inhibition of tubulin polymerization in human K562 cells assessed as multinucleation at 10 nM after 24 hrs by DAPI-staining based inverted microscopy. The class given is cell-based.
Test [1] addresses T1, Histone deacetylase (Homo sapiens) (UniProt Q13547+O15379+Q9UBN7+Q92769+Q9UQL6+Q8WUI4+Q9BY41+Q96DB2+P56524+Q9UKV0+Q969S8). As to the kind of experiment: Inhibition of HDAC in human HT-29 cells assessed as gamma-H2AX phosphorylation after 3 days by Western blot analysis. It is filed as cell-based. (In general: Immunoblotting shows a protein as a band on a membrane.)
Test [2] concerns the target T2, Protein deacetylase HDAC6 (Homo sapiens) (UniProt Q9UBN7).
T2 sequence (whole entry): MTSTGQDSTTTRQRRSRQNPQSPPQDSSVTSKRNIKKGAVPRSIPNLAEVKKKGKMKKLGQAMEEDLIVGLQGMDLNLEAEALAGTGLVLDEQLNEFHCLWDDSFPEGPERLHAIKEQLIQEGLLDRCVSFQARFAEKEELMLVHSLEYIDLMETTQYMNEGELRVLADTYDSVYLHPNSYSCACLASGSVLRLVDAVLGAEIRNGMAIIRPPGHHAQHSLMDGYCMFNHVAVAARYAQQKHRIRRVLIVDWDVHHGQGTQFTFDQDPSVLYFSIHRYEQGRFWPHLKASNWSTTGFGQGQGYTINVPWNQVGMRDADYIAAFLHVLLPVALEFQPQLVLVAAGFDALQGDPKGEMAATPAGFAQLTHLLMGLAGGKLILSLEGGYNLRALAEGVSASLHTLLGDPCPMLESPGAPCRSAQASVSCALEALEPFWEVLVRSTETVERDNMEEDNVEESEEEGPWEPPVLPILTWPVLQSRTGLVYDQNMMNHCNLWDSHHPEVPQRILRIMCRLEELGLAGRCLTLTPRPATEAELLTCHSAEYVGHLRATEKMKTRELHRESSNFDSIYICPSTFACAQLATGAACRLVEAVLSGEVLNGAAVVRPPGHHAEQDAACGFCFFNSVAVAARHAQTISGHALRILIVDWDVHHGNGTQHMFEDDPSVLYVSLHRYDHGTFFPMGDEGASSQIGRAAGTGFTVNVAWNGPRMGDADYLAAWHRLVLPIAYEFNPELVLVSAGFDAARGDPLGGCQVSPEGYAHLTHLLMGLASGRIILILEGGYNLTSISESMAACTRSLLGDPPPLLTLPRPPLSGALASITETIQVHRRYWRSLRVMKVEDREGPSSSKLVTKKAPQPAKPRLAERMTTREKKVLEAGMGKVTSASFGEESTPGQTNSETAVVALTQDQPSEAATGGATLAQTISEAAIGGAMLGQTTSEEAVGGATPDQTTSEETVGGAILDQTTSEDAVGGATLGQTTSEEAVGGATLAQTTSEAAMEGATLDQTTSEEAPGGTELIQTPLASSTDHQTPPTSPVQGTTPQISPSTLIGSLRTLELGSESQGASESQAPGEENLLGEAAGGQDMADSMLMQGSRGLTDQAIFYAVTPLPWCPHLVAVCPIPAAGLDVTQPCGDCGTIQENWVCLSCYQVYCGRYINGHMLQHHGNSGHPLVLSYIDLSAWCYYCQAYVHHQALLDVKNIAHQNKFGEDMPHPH
As to the kind of experiment: Inhibition of HDAC6 in human HT-29 cells assessed as acetylated alpha-tubulin levels at 25 uM after 24 hrs by Western blot analysis relative to control. It is filed as cell-based.

In another test the test system is HCT-116. In words: Induction of cell cycle arrest in human HCT116 cells assessed as accumulation at G2/M phase at 5 to 10 nM after 24 hrs by propidium iodide-staining based flow cytometry. The class given is functional.
In test [3] the target is T3, Histone deacetylase 8 (Homo sapiens) (UniProt Q9BY41).
T3 sequence (whole entry): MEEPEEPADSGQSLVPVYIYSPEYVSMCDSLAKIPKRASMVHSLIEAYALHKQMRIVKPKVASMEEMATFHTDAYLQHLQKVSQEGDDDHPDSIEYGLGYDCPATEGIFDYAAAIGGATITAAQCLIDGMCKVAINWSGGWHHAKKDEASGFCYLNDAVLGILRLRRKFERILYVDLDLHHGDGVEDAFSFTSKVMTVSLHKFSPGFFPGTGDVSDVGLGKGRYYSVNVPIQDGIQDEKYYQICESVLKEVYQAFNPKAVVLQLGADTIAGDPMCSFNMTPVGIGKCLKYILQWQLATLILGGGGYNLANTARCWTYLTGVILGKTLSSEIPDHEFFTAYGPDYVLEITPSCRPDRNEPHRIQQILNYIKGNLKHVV
As to the kind of experiment: Inhibition of HDAC8 in human HT-29 cells assessed as acetylated SMC3 levels at 25 uM after 24 hrs by Western blot analysis relative to control. It is filed as cell-based.

Test [4] has as its system HT-29. In words: Potency index, ratio of IC50 for isoCA4 to IC50 for test compound for antiproliferative activity against human HT-29 cells after 72 hrs by MTS assay. It is filed as functional. (Tetrazolium dyes change colour on reduction, which living cells bring about.)
The target of test [5] is T2, Protein deacetylase HDAC6 (Homo sapiens). As to the kind of experiment: Inhibition of HDAC6 in human HT-29 cells assessed as acetylated alpha-tubulin levels at 25 uM after 6 hrs by Western blot analysis relative to control. The class given is cell-based.
For test [6], the target named is T1, Histone deacetylase (Homo sapiens). As to the kind of experiment: Inhibition of HDAC in human HT-29 cells assessed as phosphorylated gamma-H2AX levels at 80 nM after 3 days by Western blot analysis relative to control. The class given is cell-based.
Test [7] deals with U-87 MG. As to the kind of experiment: Potency index, ratio of IC50 for TSA to IC50 for test compound for antiproliferative activity against human U87 cells after 72 hrs by MTS assay. It is filed as functional, U-87MG ATCC.
For test [8], the system named is U-87 MG. In words: Potency index, ratio of IC50 for isoCA4 to IC50 for test compound for antiproliferative activity against human U87 cells after 72 hrs by MTS assay. It is filed as functional, U-87MG ATCC.
The target of test [9] is T3, Histone deacetylase 8 (Homo sapiens). In words: Inhibition of HDAC8 in human HT-29 cells assessed as acetylated SMC3 levels at 25 uM after 6 hrs by Western blot analysis relative to control. It is filed as cell-based.
The test system of test [10] is HT-29. In words: Antiproliferative activity against human HT-29 cells in presence of TSA after 72 hrs by MTS assay relative to control. It is filed as functional, cell-based. As to conditions: HT-29, 72 h.
For a further test, the target named is T4, Histone deacetylase 8 (Homo sapiens, UniProt Q9BY41).
T4 sequence (Q9BY41 whole entry): T3 sequence (whole entry)
As to the kind of experiment: Inhibition of human recombinant HDAC8 after 30 mins using fluorogenic substrate by fluorimetric assay.

The source made the active and inactive calls. No cut-off for these calls is given here.

`C=C(c1ccc(OC)c(/C=C/C(=O)NO)c1)c1cc(OC)c(OC)c(OC)c1`: the result on Tubulin (Homo sapiens) and in the test with HCT-116 was Active. Also, in [1], the inhibition entry was “Dose-dependent effect”. Besides, the fold change (FC) in test [2] was determined as 0.5; in test [3], 5.4; in test [5] it was 0.4; in test [6], 14.2; in test [9] it was 3.2. Also, the “Ratio IC50” value is listed as 135 with HT-29 [4], 650 with U-87 MG [7] and 5 in the test with U-87 MG [8].

The term IC50 denotes the concentration needed to halve the response being measured. Take `C=C(c1ccc(OC)c(O)c1)c1cc(OC)c(OC)c(OC)c1`: the IC50 with HT-29 [10] was 3.8 nM; on Histone deacetylase 8, “Not Active”.
